For three compounds, Kd results are on record in PMC8667904, “Searching for drug leads targeted to the hydrophobic cleft of dengue virus capsid protein” (Journal of Enzyme Inhibition and Medicinal Chemistry, 2021).

A word on the Kd: it is the free concentration of one partner at which half of the binding sites on the other are occupied at equilibrium, for simple one-to-one binding.

For the test, the target named is T1, DENVC (dengue virus capsid protein) (Dengue virus 2 Thailand/NGS-C/1944, UniProt P14340).
T1 construct: mature capsid protein C from the N-terminus of the dengue virus genome polyprotein; pET3a, E. coli BL21(DE3)pLysS, heparin column; symmetric homodimer; printed residues reach R100
T1 sequence (P14340 1-100): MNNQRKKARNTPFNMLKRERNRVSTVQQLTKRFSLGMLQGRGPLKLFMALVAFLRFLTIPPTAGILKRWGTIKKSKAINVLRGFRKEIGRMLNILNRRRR
Description: intrinsic tryptophan fluorescence titration, shift of emission maximum. The test is classed as binding.
Take `N=C(N)NN=Cc1cc(Cl)ccc1O` [compound 1, 5-chloro-salicylaldehyde-guanylhydrazone]: the Kd came out at 18 ± 4 µM. Consider `N=C(N)N/N=C/c1ccc(Br)s1` [compound 4, 5-bromo-thiophene-2-guanylhydrazone], for which the Kd is 20 ± 7 µM. For `O/N=C/c1cc(Cl)ccc1O` [compound 12, 2-hydroxy-5-chloro-benzyloxime] the value was 23 ± 8 µM.
